Laboratory results taken from US20090176837A1, “COMPOUNDS WITH ACTIVITY AT RETINOIC ACID RECEPTORS” (SONY CORPORATION, priority 2006, published 2009).

Key:
[1] = tested on: NTERA-2 Cells; assay: Induction of neuronal differentiation in NTERA-2 cells; format: cell-based
[2] = molecular target: T1, RARβ2 (Homo sapiens, UniProt P10826); assay: Receptor Selection and Amplification Technology (R-SAT) functional receptor assay; format: cell-based; conditions: for pEC50: Table 1; for % Eff.: Table 1, efficacy relative to the maximal response of the reference ligand Am-580; for Emax: Table 1, efficacy relative to the maximal response of the reference ligand Am-580, read-out: % Eff.; for EC50: Table 1, read-out: pEC50 (converted)
T1 construct: expressed in transfected cells
T1 sequence (P10826 1-448 isoform P10826-2): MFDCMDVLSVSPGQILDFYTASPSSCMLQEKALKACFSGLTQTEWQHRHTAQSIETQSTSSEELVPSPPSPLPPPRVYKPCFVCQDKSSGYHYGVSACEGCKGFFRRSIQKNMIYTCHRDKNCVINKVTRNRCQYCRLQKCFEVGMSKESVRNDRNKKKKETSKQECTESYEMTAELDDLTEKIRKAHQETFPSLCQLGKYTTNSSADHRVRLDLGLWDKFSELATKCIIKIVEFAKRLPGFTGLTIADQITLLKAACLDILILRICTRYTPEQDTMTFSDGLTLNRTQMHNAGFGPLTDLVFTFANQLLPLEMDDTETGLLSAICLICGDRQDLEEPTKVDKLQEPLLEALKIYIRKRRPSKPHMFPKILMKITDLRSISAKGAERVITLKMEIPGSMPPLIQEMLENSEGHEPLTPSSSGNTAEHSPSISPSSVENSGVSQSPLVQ
Description: The functional receptor assay, Receptor Selection and Amplification Technology (R-SAT), was used to investigate the pharmacological properties of known and novel RARβ agonists and antagonists.
Efficacy is relative to the maximal response of the reference ligand, Am-580.

Compound | neuronal differentiation [1] | pEC50 [2] | % Eff. [2] [%] | Emax [2] [%] | EC50 [2] [µM]
CCCCCCCCc1ccc(-c2ccc(C(=O)O)cc2)cc1 [Compound 6] | induce neuronal differentiation | 7.73 | 104 | – | –
CCCCCCCCOc1ccc(-c2ccc(C(=O)NCCC#N)cc2)cc1 [Compound 51, 4′-Octyloxy-biphenyl-4-carboxylic acid (2-cyano-ethyl)-amide] | – | – | – | 59 | 0.309
CCCCCCCCc1ccc(-c2ccc(C(=O)O)cc2)cc1 [Compound 53, 4′-Octyl[1,1′-biphenyl]-4-carboxylic acid] | – | – | 99 | – | 0.513
CCCCCCCCOc1ccc(-c2ccc(C(=O)NCCc3ccccn3)cc2)cc1 [Compound 54, 4′-Octyloxy-biphenyl-4-carboxylic acid (2-pyridin-2-yl-ethyl)-amide] | – | – | – | 39 | 0.661
CCCCCCCCc1ccc(-c2ccc(C(=O)O)c(C)c2)cc1 [Compound 55, 3-Methyl-4′-octyl[1,1′-biphenyl]-4-carboxylic acid] | – | – | – | 84 | 0.676
Cc1sc(-c2ccc(C(=O)O)cc2)nc1OCC(=O)NC1CCCCCC1 [Compound 56, 4-(4-Cycloheptycarbamoylmethoxy-5-methyl-thiazol-2-yl)-benzoic acid] | – | – | – | 105 | 0.676
Cc1sc(-c2ccc(C(=O)O)cc2)nc1OCC(=O)NC(C)CCC(C)C (stereo not drawn) [Compound 57, 4-[4-[2-[(1,4-Dimethylpentyl)amino]-2-oxoethoxy]-5-methyl-2-thiazolyl]-benzoic acid] | – | – | – | 77 | 0.676
Cc1sc(-c2ccc(C(=O)O)cc2)nc1OCC(=O)NC1CCC(C)CC1 (stereo not drawn) [Compound 58, 4-[5-Methyl-4-[2-[(4-methylcyclohexyl)amino]-2-oxoethoxy]-2-thiazolyl]-benzoic acid] | – | – | – | 66 | 0.708
CCCCCCCc1ccc(-c2ccc(C(=O)NCCc3ccccn3)cc2)cc1 [Compound 59, 4′-Heptyl-biphenyl-4-carboxylic acid (2-pyridin-2-yl-ethyl)-amide] | – | – | – | 35 | 0.776
CCCCCCCCc1ccc(-c2ccc(C(=O)NS(C)(=O)=O)cc2)cc1 [Compound 60, N-(4′-Octyl-biphenyl-4-carbonyl)-methanesulfonamide] | – | – | – | 51 | 0.832
Cc1sc(-c2ccc(C(=O)O)cc2)nc1OCC(=O)NC1CCCC1 [Compound 61, 4-(4-Cyclopentylcarbamoylmethoxy-5-methyl-thiazol-2-yl)-benzoic acid] | – | – | – | 39 | 0.832
CCCCNC(=O)COc1nc(-c2ccc(C(=O)O)cc2)sc1C [Compound 62, 4-(4-Butylcarbamoylmethoxy-5-methyl-thiazol-2-yl)-benzoic acid] | – | – | – | 37 | 0.832
CCCCCCc1ccc(-c2ccc(C(=O)Nc3ccc(C)cn3)cc2)cc1 [Compound 63, 4′-Hexyl-biphenyl-4-carboxylic acid (5-methyl-pyridin-2-yl)-amide] | – | – | – | 36 | 0.891
CCCCCCCCc1ccc(-c2ccc(C(=O)OCCc3ccccn3)cc2)cc1 [Compound 68] | induce neuronal differentiation | – | – | – | –
Imidazol-1-yl-(4-octyl-biphenyl-4-yl)-methanone [Compound 8] | – | 7.66 | 79 | – | –
